Source: US20140315738A1, “MARINE MEDAKA GENES RESPONDING TO THE EXPOSURE OF ENDOCRINE-DISRUPTING CHEMICALS, AND METHOD FOR DIAGNOSING AN AQUATIC ECO-SYSTEM CONTAMINATION USING SAME” (priority 2011, published 2014)

Tested on: Javanese medaka (Oryzias javanicus) livers
Assay: real-time quantitative PCR of liver gene expression after exposure to BPA
Assay type: in vivo
Conditions: 76 μg/L, 48 hr, β-actin control gene
Procedure: To 3 L beaker with 2 L filtered seawater therein, 10 male Javanese medaka bred in culture water tank were transported each time, and acclimated for 24 hr. […] Additionally, five Javanese medaka of Example <1-1> were exposed to BPA (76 μg/L) for 48 hr. […] The Javanese medaka was transported to ice water, one at a time, which momentarily stunned it, followed by beheading and evisceration and liver removal.
Primers for real-time quantitative PCR (RT-PCR) for the above genes were designed and synthesized, and sequences of the primers of the genes for real time quantitative PCT are listed in Table 6 below.
With RNA template extracted with the method of Example <2-1>, cDNA was synthesized using AB High Capacity RAN-to-cDNA Kit (Applied Biosystems, USA). RNA in the amount of 1 μg was seeded, added with distilled water and titrated to 9 μl. 2×RT buffer (10 μl), and 20× enzyme Mix 1 μl were mixed well, centrifuged and precipitated, and allowed to react at 37° C. for 60 min. The reactant was heated at 95° C. for 5 min, after which reaction was completed. The synthesized cDNA was stored at −20° C.
To the 0.5 μg synthesized cDNA (corresponding to approximately 10 ng/μl), 0.8 primer pairs of corresponding genes (10 pmol/μl), and 2 SYBR1 mixture (10 μl) were added. The final amount was titrated to 20 μl using distilled water. At temperature condition of 95° C. 10 min, 95° C. 30 sec, 60° C. 30 sec, 72° C. 30 sec, 40 cycles of PCR were conducted.
CT values of the respective samples after exposure to BPA between control genes (β-actin) and genes of interest were compared with each other, and the relative expression differences of the genes of interest were quantified into relative values according to Relative Standard Curve (Table 7).

SMILES: CC(C)(c1ccc(O)cc1)c1ccc(O)cc1 [BPA, Bisphenol A]
- Fold difference, Apolipoprotein E1 (AP): +2.30 fold
- Fold difference, Arylamine N-acetyl transferase (ANAT): −1.69 fold
- Fold difference, Basigin (Bsgn): +4.25 fold
- Fold difference, C1q-like adipose specific protein (C-ASP): −2.17 fold
- Fold difference, Calcium binding protein P22 (CBP-P22): +1.19 fold
- Fold difference, Catalase (Cat): −1.49 fold
- Fold difference, Ceruloplasmin (Cer): +2.09 fold
- Fold difference, Chitinase (Chi): −5.56 fold
- Fold difference, Choline kinase (Chka): +4.18 fold
- Fold difference, Choriogenin L (ChL): +50.00 fold
- Fold difference, Complement component C8 beta (C8): −1.37 fold
- Fold difference, Complement factor B/C2-B (CF-B/C2): −2.27 fold
- Fold difference, Delta 6-desaturase (FD6D): +1.43 fold
- Fold difference, Delta-6 fatty acyl desaturase (FADSD6): −1.39 fold
- Fold difference, Glutaminase (Gls): −1.35 fold
- Fold difference, Glutathione S-transferase (Gst): −1.85 fold
- Fold difference, Hepcidin (Hep): −1.14 fold
- Fold difference, Leukocyte elastase inhibitor (LE): +1.12 fold
- Fold difference, Lipoprotein lipase (LPL): +1.11 fold
- Fold difference, N-acetyltransferase (NAT13): −2.50 fold
- Fold difference, Plasminogen (Plg): +1.25 fold
- Fold difference, Retinol binding protein 4 (RBP4): +1.12 fold
- Fold difference, Ring finger protein 141 (RFP): +1.23 fold
- Fold difference, TBT-binding protein (TBT-bp): −1.66 fold
- Fold difference, Transferrin (TF): −1.30 fold
- Fold difference, Uridine phosphorylase 2 (Upp2): −1.72 fold
- Fold difference, Vitellogenin 1 (Vit1): −100.00 fold
- Fold difference, Warm temperature acclimation (C243) (Wap65): +1.07 fold
